This passage reports ED50 results from ChEMBL document CHEMBL1129229, “Synthesis and trypanocidal activity of the bis-carba analogue of pentamidine” (1996).

The experiment has as its system Mus musculus. As to the kind of experiment: Effective dose against Trypanosoma brucei S427/118 infection in mice, administered ip after 24 hr. It counts as functional.

What is called ED50 is the midpoint of the dose-response relation. A low value points to greater potency. The molecule `N=C(N)c1ccc(OCCCCCOc2ccc(C(=N)N)cc2)cc1` [PENTAMIDINE] displayed an ED50 of 0.38 mg/kg.
The molecule `N=C(N)c1ccc(CCCCCCCc2ccc(C(=N)N)cc2)cc1` had an ED50 of 7.3 mg/kg.
